According to patent US7144893B2, “4-aryl quinols and analogs thereof as therapeutic agents” (Cancer Research Technology Limited, priority 2001, dated 2006):
In brackets after ≈: the same amount, converted by molar mass.

Experiments:
[1] = test system: human renal tumor xenograft RXF 1220; test: In vivo antitumor activity, renal tumor xenograft; settings: 15 mg/kg i.p.
[2] = test system: Mycobacterium tuberculosis H37Rv (ATCC 27294); test: Microplate Alamar Blue Assay (MABA), TAACF primary screening; assay type: cell-based; settings: lowest concentration effecting a reduction in fluorescence of 90% relative to controls
Description: Compounds were submitted to the Tuberculosis Antimicrobial Acquisition and Coordinating Facility (TAACF) for testing as antimycobacterial drugs.
Compounds were subjected to in vitro evaluation for antimycobacterial activity.
See, for example, Collins et al., 1997.

[3] = test system: p53; test: p53 regulation in cancer cells; assay type: cell-based; settings: MCF-7 (breast cancer) and HCT 116 (colon cancer)
[4] = test system: ZR^75 clones expressing different levels of epidermal growth factor receptor (EGFR); test: Activity against ZR75 clones with different EGFR levels; assay type: cell-based
[5] = test system: apoptotic events; test: Induction of apoptotic events; assay type: cell-based; settings: after lag phase (48 h)
[6] = test system: cellular glutathione; test: Cellular glutathione; assay type: cell-based
[7] = test system: RXF 631L; test: In vitro propidium iodide cytotoxicity assay; assay type: cell-based, human; settings: mean ± S.D.
Description: (§1) This assay was performed essentially according to the method described by Dengler et al., 1995. Human tumor cells (see Table 2) were plated in 96 well flat-bottomed microtiter plates (50 μL cell suspension, 1×10^5 or 5×10^4 cells/mL) and additional 50 μL of culture medium were added. After a 24 hr recovery, 50 μL of culture medium containing 50 μg/mL gentamycin was added into the 6 control wells or medium containing the test drug ([…]) was added to the wells. Each drug concentration was plated in triplicate. Following 3-6 days of incubation, depending on cell doubling time, a modified propidium iodide (PI) assay was performed. Culture medium was replaced by fresh medium and 50 μL of an aqueous propidium iodide solution (25 μg/mL) were added to each well. […] The fluorescence signal correlates with the numbers of dead cells. Fluorescence (FU1) was measured using a Millipore Cytofluor 2350 microplate reader (excitation 530 nm, emission 620 nm). Microplates were then kept at -18° C. for 24 hr, yielding a total cell kill. After thawing of the plates and a second fluorescence measurement (FU2), the amount of viable cells was calculated by subtraction of […]). Growth inhibition was expressed as treated/control ×100 (% T/C) (that is, growth inhibition at a given concentration is represented as a percentage of treated cell growth over control cell growth). Inhibiting concentrations (IC) were determined by plotting compound concentration versus cell viability. Mean IC50, IC70, and IC90 values were calculated for each individual cell line.

[8] = test system: RXF 393NL; test: In vitro propidium iodide cytotoxicity assay; assay type: cell-based, human; settings: mean ± S.D.
Description: as §1

[9] = test system: RXF 944L; test: In vitro propidium iodide cytotoxicity assay; assay type: cell-based, human; settings: mean ± S.D.
Description: as §1

[10] = test system: MCF-7 wt and MCF-7/adr (breast cancer); test: Potency in MCF-7 wt and MCF-7/adr; assay type: cell-based
[11] = test system: human renal tumor xenograft RXF 944LX; test: In vivo antitumor activity, renal tumor xenograft; settings: for DT (tumor doubling time) / T/C (optimal test/control) / GD (growth delay): 15 mg/kg i.p.
Description: Animals. Six to eight weeks old outbred nude mice of NMRI genetic background were used for all experiments. The animals were bred and raised in animal facilities in Freiburg, Germany and housed in Macrolon™ cages. The mice were kept under laminar air flow on natural day light cycles. Diet (Altromin, Lage, Germany) and water were provided ad libitum and room temperature (25+/−2° C.) as well as humidity (60+/−10%) were maintained. The experiments were conducted essentially according to the UKCCCR guidelines under a project license approved by the German Federal Government (Regierungspräsidium Freiburg). The gender of the mice was chosen according to the gender of the patients from which the tumors were originally derived.
Tumors and Data Evaluation. For the experiments, three subcutaneously (s.c.) growing renal human tumor xenograft models from the Freiburg tumor panel were selected (RXF 944LX, RXF 393, and RXF 1220). All renal cell carcinomas were hypernephromas. For the experiments, the latter were engrafted from tumors in serial passage growing s.c. in nude mice. Fragments of approximately 25 mg were implanted s.c. in both flanks of the animals. When the tumors were clearly palpable and had reached a volume of 100–200 mm^3, animals (6–12 tumors) were randomly allocated into treatment groups. Tumor growth was followed twice weekly by serial caliper measurement. Tumor volumes were calculated using the formula length×width^2/2, where length (a) is the largest dimension and width (b) the smallest dimension perpendicular to the length (a×b^2/2) (see, e.g., Geran et al., 1972).
Data evaluation was performed using software by plotting relative tumor volume against time. Relative tumor volumes were calculated for each single tumor by dividing the tumor volume on day X by the tumor volume on day 0 at the time of randomization. Tumor doubling time of test and control groups was defined as the period required to double the initial tumor volume (200%). Growth curves were analyzed in terms of maximal tumor inhibition (treated/control, T/C, calculated as median tumor weight of treated animals divided by median tumor weight of control animals times 100), growth delay (the difference in days to double the initial tumor volume of the test minus the control groups). Median relative tumor volumes of each treatment group were compared to those of the control group. Human tumors growing s.c. in nude mice were treated intraperitoneally (i.p.) with doses of 15 and 10 mg/kg drug either on days 1 and 2; on days 1 and 5; on days 1 and 8; or on days 1, 5 and 8.
The drug doses and treatment schedules used, were determined as being tolerated in non-tumor bearing nude mice prior to initiation of tumor experiments.

[12] = test system: MCF-7 (wt p53) and MDS 468 (mut p53) (breast cancer); test: Potency in MCF-7 (wt p53) and MDS 468 (mut p53); assay type: cell-based

Structure (SMILES): O=C1C=CC(O)(c2nc3ccccc3s2)C=C1 [Q05, 4-(Benzothiazol-2-yl)-4-hydroxy-2,5-cyclohexadien-1-one]
- DT (tumor doubling time) ([1]; days 1, 5, 8): 5.3
- T/C (optimal test/control) ([1]; days 1, 5, 8): 66
- GD (growth delay) ([1]; days 1, 5, 8, difference in days to double initial tumor volume): 2.2
- BWC (maximal body weight change) ([1]; days 1, 5, 8, model induces cachexia): −20
- MIC [2]: 0.78 µg/mL (≈ 3.21 µM)
- effect on p53 [3]: up-regulates p53
- relative activity against ZR75 clones [4]: equi-active
- apoptosis induction [5]: induces apoptotic events
- effect on cellular glutathione [6]: depletes cellular glutathione
- IC50 ([7]; Homo sapiens): 0.37 µg/mL (≈ 1.52 µM)
- IC90 ([7]; Homo sapiens): 0.84 µg/mL (≈ 3.45 µM)
- Mean IC70 [7]: 0.56 N.E. μg/mL
- IC50 ([8]; Homo sapiens): 0.34 ± 0.03 µg/mL (≈ 1.4 µM)
- IC90 ([8]; Homo sapiens): 8.63 ± 5.4 µg/mL (≈ 35.5 µM)
- Mean IC70 [8]: 0.67 ± 0.09 µg/mL
- IC50 ([9]; Homo sapiens): 0.265 ± 0.06 µg/mL (≈ 1.09 µM)
- IC90 ([9]; Homo sapiens): 0.87 ± 0.09 µg/mL (≈ 3.58 µM)
- Mean IC70 [9]: 0.48 ± 0.08 µg/mL
- relative potency MCF-7 wt and MCF-7/adr [10]: equi-potent
- DT (tumor doubling time) ([11]; days 1, 2): 4.1
- T/C (optimal test/control) ([11]; days 1, 2): 27
- GD (growth delay) ([11]; days 1, 2, difference in days to double initial tumor volume): 2.9
- DT (tumor doubling time) ([11]; days 1, 8): 4.2
- T/C (optimal test/control) ([11]; days 1, 8): 43
- GD (growth delay) ([11]; days 1, 8, difference in days to double initial tumor volume): 2.3
- toxic death in treatment group ([11]; FIG. 2, six animals per group): 1/6
- T/C ([11]; FIG. 2, six animals per group, 11–12 tumors per group): 43%
- T/C ([11]; FIG. 3, three animals per group): 27%
- relative potency MCF-7 (wt p53) and MDS 468 (mut p53) [12]: equi-potent
